Common to all, as to format: in vivo
Series [1] relates to Echinochloa oryzacola Vasing. In words: Test Example 1: herbicidal activity, application before weed generation in submerged conditions. The conditions noted are these: Application herbicide amount 320 g/ha; Seventeenth Table. The source says: (§1) [Test Example 1] Herbicidal Activity Test by Application Before Weed Generation in Submerged Conditions After alluvial soil was placed into 1/10000 are of Wagner pot, water was poured and mixed to form a submerged condition having a water depth of 4 cm. Seeds of Echinochloa oryzacola Vasing., Scirpus juncoides, and Monochoria vaginalis were sowed in a mixed manner in the above pot and thereafter 2.5 leaf stage Oryza sativa seedling was transplanted. On the day of sowing seeds, the emulsion agent containing the compound of the present invention prepared in accordance with Formulation Example 2 was diluted with water so as to be a predetermined herbicide amount and the diluted compound was applied to the surface of the water. The pot was placed in a greenhouse of 25° C. to 30° C. to grow plant. Three weeks after the herbicide application, effects on each plant were investigated in accordance with the following criteria. Criteria 5 Herbicidal ratio of 90% or more (almost completely withered) 4 Herbicidal ratio of 70% or more and less than 90% 3 Herbicidal ratio of 40% or more and less than 70% 2 Herbicidal ratio of 20% or more and less than 40% 1 Herbicidal ratio of 5% or more and less than 20% 0 Herbicidal ratio of 5% or less (almost no effect) A: Echinochloa oryzicola Vasing., B: Scirpus juncoides, C: Monochoria vaginalis, D: Leptochloa chinensis, E: Cyperus difformis, F: Digitaria ciliaris, G: Setaria viridis, H: Echinochloa crus-galli var. crus-galli, I: Avena fatua, J: Alopecurus myosuroides, K: Lolium multiflorum Lam., L: Apera spica-venti., M: Abutilon theophrasti, N: Amaranthus retroflexus, O: Chenopodium album, P: Stellaria media, Q: Galium spurium, R: Veronica persica, a: transplanted Oryza sativa, b: directly sowed Oryza sativa, c: Zea mays, d: Glycine max, e: Triticum aestivum, f: Beta vulgaris ssp. vulgaris, and g: Brassica campestris L. The application herbicide amount (g/ha) means an amount that a concentration is adjusted so that, when an application amount is converted into per hectare (1 ha), the herbicide is applied by the number of grams (g) of the described value.

A further series concerns Monochoria vaginalis. Described as above. The conditions noted are these: Application herbicide amount 320 g/ha; Seventeenth Table.
Description: as §1

The next series deals with Scirpus juncoides. The series is described as above. The conditions noted are these: Application herbicide amount 320 g/ha; Seventeenth Table.
Description: as §1

Another series deals with Triticum aestivum. In words: Test Example 4: effect on crop by application to foliage (diluvial soil, plastic box). The conditions noted are these: Application herbicide amount 320 g/ha; effect on crop. A digest of the protocol:
(§2)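 Scores run from 0 (herbicidal ratio ≤5%) to 5 (≥90%, almost fully withered) and were assessed three weeks after foliar spraying. Seedlings had been raised for 14 days at 25-30° C in sterilized diluvial soil before treatment, with the emulsion diluted in water to the stated g/ha dose.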

For the next series, the system named is Glycine max. The description is as above. The conditions noted are these: Application herbicide amount 320 g/ha; effect on crop. Summed up: as §2
In series [2] the test system is directly sowed Oryza sativa. Described as above. The conditions noted are these: Application herbicide amount 320 g/ha; effect on crop. A digest of the protocol:
as §2

In a further series the test system is Zea mays. The description is as above. The conditions noted are these: Application herbicide amount 320 g/ha; effect on crop. Summed up:
as §2

Series [3] concerns Beta vulgaris ssp. vulgaris. Described as above. The conditions noted are these: Application herbicide amount 320 g/ha; effect on crop. Summed up:
as §2

In another series the test system is Brassica campestris L. Described as above. The conditions noted are these: Application herbicide amount 320 g/ha; effect on crop. A digest of the protocol:
as §2

In series [4] the test system is transplanted Oryza sativa. In words: Test Example 1: effect on crop, application before weed generation in submerged conditions. The conditions noted are these: Application herbicide amount 320 g/ha; Seventeenth Table.
Description: as §1

The test system of the next series is Lolium multiflorum Lam. In words: Test Example 4: herbicidal effect by application to foliage (diluvial soil, plastic box). The conditions noted are these: Application herbicide amount 320 g/ha. Summed up: as §2
The next series has as its system Alopecurus myosuroides. Described as above. The conditions noted are these: Application herbicide amount 320 g/ha. Summed up: as §2
A further series relates to Apera spica-venti. Described as above. The conditions noted are these: Application herbicide amount 320 g/ha. Summed up: as §2
Series [5] concerns Echinochloa crus-galli var. crus-galli. The description is as above. The conditions noted are these: Application herbicide amount 320 g/ha. A digest of the protocol:
as §2

Another series relates to Setaria viridis. Described as above. The conditions noted are these: Application herbicide amount 320 g/ha. A digest of the protocol: as §2
The next series relates to Avena fatua. Described as above. The conditions noted are these: Application herbicide amount 320 g/ha. A digest of the protocol:
as §2

The next series deals with Abutilon theophrasti. Described as above. The conditions noted are these: Application herbicide amount 320 g/ha. Summed up:
as §2

A further series concerns Chenopodium album. The description is as above. The conditions noted are these: Application herbicide amount 320 g/ha. A digest of the protocol: as §2
A further series deals with Digitaria ciliaris. The description is as above. The conditions noted are these: Application herbicide amount 320 g/ha. Summed up:
as §2

In the next series the test system is Galium spurium. Described as above. The conditions noted are these: Application herbicide amount 320 g/ha. A digest of the protocol: as §2

On to `CSC(C)c1nnc2c(C(=O)Nc3nnc(C)o3)ccc(C(F)(F)F)n12` (centres unmarked) [1-078], for which the “A: Echinochloa oryzicola Vasing. (herbicidal effect grade)” value in series [1] is 4 (Herbicidal ratio of 70% or more and less than 90%). Besides, the “C: Monochoria vaginalis (herbicidal effect grade)” value in the series on Monochoria vaginalis was 3 (Herbicidal ratio of 40% or more and less than 70%). Besides, the “B: Scirpus juncoides (herbicidal effect grade)” value with Scirpus juncoides is 4 (Herbicidal ratio of 70% or more and less than 90%). For the same compound, the e in the series on Triticum aestivum was 4 (Herbicidal ratio of 70% or more and less than 90%). The c in the series with Glycine max is 4 (Herbicidal ratio of 70% or more and less than 90%). In addition, the d in series [2] is 4 (Herbicidal ratio of 70% or more and less than 90%). Also, the b in the series with Zea mays was 4 (Herbicidal ratio of 70% or more and less than 90%). The f in series [3] was 5 (Herbicidal ratio of 90% or more (almost completely withered)). For the same compound, the g with Brassica campestris L. was 4 (Herbicidal ratio of 70% or more and less than 90%). The “a: transplanted Oryza sativa (effect on crop grade)” value in series [4] was 4 (Herbicidal ratio of 70% or more and less than 90%). The K with Lolium multiflorum Lam. is 3 (Herbicidal ratio of 40% or more and less than 70%). The J with Alopecurus myosuroides is 3 (Herbicidal ratio of 40% or more and less than 70%). Moreover, the L with Apera spica-venti. was 4 (Herbicidal ratio of 70% or more and less than 90%). Besides, the H in series [5] is reported as 5 (Herbicidal ratio of 90% or more (almost completely withered)). In the series with Setaria viridis, the G is listed as 5 (Herbicidal ratio of 90% or more (almost completely withered)). Further, the I with Avena fatua was 4 (Herbicidal ratio of 70% or more and less than 90%). Also, the M with Abutilon theophrasti is 5 (Herbicidal ratio of 90% or more (almost completely withered)). For the same compound, the O in the series on Chenopodium album is on record as 5 (Herbicidal ratio of 90% or more (almost completely withered)). Besides, the F in the series with Digitaria ciliaris is 5 (Herbicidal ratio of 90% or more (almost completely withered)).

With `Cc1nnc(NC(=O)c2ccc(C(F)(F)F)n3c(C(C)[S+](C)[O-])nnc23)o1` (centres unmarked) [1-079], the “A: Echinochloa oryzicola Vasing. (herbicidal effect grade)” value in series [1] was 4 (Herbicidal ratio of 70% or more and less than 90%). In addition, in the series on Monochoria vaginalis, the “C: Monochoria vaginalis (herbicidal effect grade)” value is 3 (Herbicidal ratio of 40% or more and less than 70%). In addition, the “B: Scirpus juncoides (herbicidal effect grade)” value in the series with Scirpus juncoides was 4 (Herbicidal ratio of 70% or more and less than 90%). Also, the e in the series with Triticum aestivum was 4 (Herbicidal ratio of 70% or more and less than 90%). Besides, the c in the series with Glycine max is 1 (Herbicidal ratio of 5% or more and less than 20%). Further, the d in [2] is reported as 5 (Herbicidal ratio of 90% or more (almost completely withered)). The b in the series with Zea mays is 4 (Herbicidal ratio of 70% or more and less than 90%). Moreover, in [3], the f is given as 5 (Herbicidal ratio of 90% or more (almost completely withered)). The g in the series with Brassica campestris L. was 5 (Herbicidal ratio of 90% or more (almost completely withered)). In addition, in [4], the “a: transplanted Oryza sativa (effect on crop grade)” value was 4 (Herbicidal ratio of 70% or more and less than 90%). Further, the K in the series with Lolium multiflorum Lam. was 3 (Herbicidal ratio of 40% or more and less than 70%). For the same compound, the J in the series with Alopecurus myosuroides is 2 (Herbicidal ratio of 20% or more and less than 40%). The H in series [5] is given as 5 (Herbicidal ratio of 90% or more (almost completely withered)). Further, the G in the series on Setaria viridis is on record as 5 (Herbicidal ratio of 90% or more (almost completely withered)). Moreover, in the series with Galium spurium, the Q was 4 (Herbicidal ratio of 70% or more and less than 90%). Further, the I in the series on Avena fatua is 4 (Herbicidal ratio of 70% or more and less than 90%). Besides, the M with Abutilon theophrasti is recorded as 5 (Herbicidal ratio of 90% or more (almost completely withered)). Besides, the O in the series with Chenopodium album was 5 (Herbicidal ratio of 90% or more (almost completely withered)). In addition, in the series with Digitaria ciliaris, the F is 5 (Herbicidal ratio of 90% or more (almost completely withered)).

The record behind these values is patent publication US9708314B2, “Heterocyclic amide compound” (NISSAN CHEMICAL INDUSTRIES, LTD., priority 2013, dated 2017).
